In publication PMC8138313, “Identification, Selection and Immune Assessment of Liver Stage CD8 T Cell Epitopes From Plasmodium falciparum” (Frontiers in Immunology, 2021):
Where a SMILES comes first, the peptide text is derived from it.

Legend:
Assay in all cases: HLA class I binding assay (cell-free competition, fluorescence polarization)
[1] = molecular target: HLA A*0101 (Homo sapiens, UniProt P04439, A114D/A174V/A182V/D101N/D185E/E176A/E190D/L180R/Q94H/R68K/S129P/T187R/V100A/V91M/W191G)
[2] = molecular target: HLA A*0201 (Homo sapiens, UniProt P04439, D140Y/D185E/D98H/E176V/E277Q/G131W/G231S/I119V/I121R/I166T/I218V/L300P/L318F/N151K/N90K/P208A/P217A/Q86G/Q94H/R138H/R169H/T345S)
[3] = molecular target: HLA A*0301 (Homo sapiens, UniProt P04439)
[4] = molecular target: HLA A*2402 (Homo sapiens, UniProt P04439, D101N/D140Y/D185E/E176V/E190D/F33S/G103R/G107R/I119L/I121M/I306V/K335N/L105A/L180Q/L300P/N151K/N90K/Q86E/Q94H/R106L/R138H/R89G/T104I/T345S/V100E/W191G/Y123F)

SMILES	IC50 [1]	IC50 [2]	IC50 [3]	IC50 [4]
CC(C)C[C@H](N)C(=O)N[C@H](C(=O)N[C@@H](Cc1c[nH]cn1)C(=O)N[C@@H](CCCCN)C(=O)N[C@@H](Cc1ccc(O)cc1)C(=O)N[C@@H](CC(N)=O)C(=O)N[C@@H](CCC(=O)O)C(=O)N[C@@H](Cc1ccccc1)C(=O)N[C@H](C(=O)O)C(C)C)[C@@H](C)O (H-LTHKYNEFV-OH)	174 µM	2.41 µM	–	–
CC[C@H](C)[C@H](NC(=O)[C@@H](N)Cc1ccccc1)C(=O)N[C@@H](CC(=O)O)C(=O)N1CCC[C@H]1C(=O)N[C@@H](CCC(N)=O)C(=O)N[C@H](C(=O)N[C@@H](CCC(=O)O)C(=O)N[C@@H](CCSC)C(=O)N[C@@H](Cc1ccccc1)C(=O)N[C@@H](CCCCN)C(=O)O)[C@@H](C)O (H-FIDPQTEMFK-OH)	46.6 µM	–	8.1 µM	–
CC(C)[C@H](NC(=O)[C@H](Cc1ccccc1)NC(=O)[C@H](CCC(N)=O)NC(=O)[C@H](Cc1ccccc1)NC(=O)CNC(=O)CNC(=O)[C@H](CCCCN)NC(=O)CNC(=O)[C@@H](N)Cc1ccc(O)cc1)C(=O)N[C@@H](Cc1ccccc1)C(=O)O (H-YGKGGFQFVF-OH)	–	–	–	0.231 µM
CC(C)[C@H](NC(=O)[C@H](CC(N)=O)NC(=O)[C@@H](NC(=O)[C@@H](N)Cc1ccccc1)[C@@H](C)O)C(=O)N[C@@H](CC(N)=O)C(=O)N[C@@H](CCC(N)=O)C(=O)N[C@@H](Cc1ccccc1)C(=O)N[C@@H](Cc1ccccc1)C(=O)N[C@@H](CCCCN)C(=O)O (H-FTNVNQFFK-OH)	> 1000 µM	–	0.921 µM	–
CC(C)[C@H](NC(=O)[C@H](CCCNC(=N)N)NC(=O)[C@H](CC(N)=O)NC(=O)[C@H](CCCCN)NC(=O)[C@H](Cc1ccc(O)cc1)NC(=O)[C@@H](NC(=O)[C@H](CC(N)=O)NC(=O)[C@H](Cc1ccc(O)cc1)NC(=O)[C@@H](N)Cc1c[nH]cn1)[C@@H](C)O)C(=O)N[C@@H](Cc1ccccc1)C(=O)O (H-HYNTYKNRVF-OH)	–	–	–	3 µM
CSCC[C@H](NC(=O)[C@@H](N)CC(N)=O)C(=O)N[C@@H](CC(N)=O)C(=O)N[C@@H](Cc1ccc(O)cc1)C(=O)N[C@@H](CCCCN)C(=O)N[C@@H](CCC(N)=O)C(=O)N[C@@H](CC(N)=O)C(=O)N[C@@H](CC(N)=O)C(=O)N[C@@H](Cc1ccccc1)C(=O)O (H-NMNYKQNNF-OH)	–	–	–	14.7 µM
CC[C@H](C)[C@H](NC(=O)CNC(=O)[C@H](Cc1ccc(O)cc1)NC(=O)[C@@H](N)Cc1c[nH]cn1)C(=O)N[C@@H](CC(N)=O)C(=O)N1CCC[C@H]1C(=O)N[C@H](C(=O)N[C@@H](CCC(N)=O)C(=O)N[C@@H](CC(C)C)C(=O)O)C(C)C (H-HYGINPVQL-OH)	–	–	–	6.79 µM
N=C(N)NCCC[C@H](NC(=O)[C@H](Cc1ccc(O)cc1)NC(=O)[C@H](CCCCN)NC(=O)[C@@H]1CCCN1C(=O)[C@H](Cc1c[nH]cn1)NC(=O)[C@@H](N)CO)C(=O)N[C@@H](CC(N)=O)C(=O)N[C@@H](Cc1ccccc1)C(=O)N[C@@H](CCCCN)C(=O)N[C@@H](Cc1ccccc1)C(=O)O (H-SHPKYRNFKF-OH)	–	–	–	16.6 µM
CC(C)C[C@H](NC(=O)[C@H](Cc1ccccc1)NC(=O)[C@@H]1CCCN1)C(=O)N[C@@H](CCCCN)C(=O)N[C@@H](CO)C(=O)NCC(=O)N[C@@H](Cc1ccccc1)C(=O)N[C@H](C(=O)N[C@@H](Cc1ccccc1)C(=O)O)[C@@H](C)O (H-PFLKSGFTF-OH)	–	–	–	8.32 µM
CC(C)[C@H](NC(=O)[C@H](CO)NC(=O)[C@H](CCC(=O)O)NC(=O)[C@H](Cc1ccccc1)NC(=O)[C@H](Cc1ccccc1)NC(=O)[C@@H](NC(=O)[C@@H](N)[C@@H](C)O)[C@@H](C)O)C(=O)N[C@@H](CO)C(=O)N[C@@H](Cc1ccc(O)cc1)C(=O)O (H-TTFFESVSY-OH)	338 µM	–	658 µM	–
CC[C@H](C)[C@H](N)C(=O)N[C@@H](Cc1ccc(O)cc1)C(=O)NCC(=O)N[C@@H](CCCCN)C(=O)NCC(=O)NCC(=O)N[C@@H](Cc1ccccc1)C(=O)N[C@@H](CCC(N)=O)C(=O)N[C@@H](Cc1ccccc1)C(=O)O (H-IYGKGGFQF-OH)	–	–	–	0.163 µM
C[C@@H](O)[C@H](NC(=O)[C@H](Cc1ccc(O)cc1)NC(=O)[C@H](CCCCN)NC(=O)[C@H](Cc1ccc(O)cc1)NC(=O)[C@@H](N)Cc1c[nH]c2ccccc12)C(=O)N[C@@H](CCC(=O)O)C(=O)N[C@@H](CO)C(=O)N[C@@H](CC(=O)O)C(=O)N[C@@H](Cc1ccccc1)C(=O)O (H-WYKYTESDF-OH)	–	–	–	2.51 µM
CSCC[C@H](NC(=O)[C@H](CC(N)=O)NC(=O)[C@H](CCC(N)=O)NC(=O)[C@H](CC(N)=O)NC(=O)[C@H](C)NC(=O)[C@H](CCSC)NC(=O)[C@@H](N)[C@@H](C)O)C(=O)N[C@@H](CC(N)=O)C(=O)N[C@@H](Cc1ccc(O)cc1)C(=O)O (H-TMANQNMNY-OH)	2.02 µM	–	0.943 µM	–
CC[C@H](C)[C@H](NC(=O)[C@H](CCCNC(=N)N)NC(=O)[C@@H]1CCCN1C(=O)[C@H](CC(=O)O)NC(=O)[C@H](Cc1ccc(O)cc1)NC(=O)[C@@H](N)CCCCN)C(=O)N[C@@H](CO)C(=O)NCC(=O)N[C@@H](Cc1c[nH]c2ccccc12)C(=O)O (H-KYDPRISGW-OH)	–	–	–	5.01 µM
NCCCC[C@H](NC(=O)[C@H](Cc1ccc(O)cc1)NC(=O)[C@@H](N)CC(N)=O)C(=O)N[C@@H](CCC(N)=O)C(=O)N[C@@H](CC(N)=O)C(=O)N[C@@H](CC(N)=O)C(=O)N[C@@H](Cc1ccccc1)C(=O)N1CCC[C@H]1C(=O)N[C@@H](Cc1ccccc1)C(=O)O (H-NYKQNNFPF-OH)	–	–	–	9.49 µM
CC(C)C[C@H](NC(=O)[C@@H]1CCCN1C(=O)[C@H](Cc1ccccc1)NC(=O)[C@H](CC(N)=O)NC(=O)[C@H](Cc1ccccc1)NC(=O)[C@H](CC(N)=O)NC(=O)[C@H](CCC(=O)O)NC(=O)[C@H](CC(C)C)NC(=O)[C@@H](N)Cc1ccccc1)C(=O)O (H-FLENFNFPL-OH)	> 1000 µM	3.68 µM	–	–
CC(C)C[C@H](NC(=O)[C@H](C)NC(=O)[C@H](CC(=O)O)NC(=O)[C@H](Cc1ccccc1)NC(=O)[C@@H](NC(=O)[C@@H](N)CC(N)=O)[C@@H](C)O)C(=O)N[C@@H](Cc1ccc(O)cc1)C(=O)N[C@@H](Cc1ccc(O)cc1)C(=O)N[C@H](C(=O)O)C(C)C (H-NTFDALYYV-OH)	> 1000 µM	8.76 µM	–	–
CC[C@H](C)[C@H](NC(=O)[C@H](CC(=O)O)NC(=O)[C@@H](NC(=O)[C@@H](N)CO)[C@@H](C)O)C(=O)N[C@H](C(=O)N[C@@H](Cc1ccccc1)C(=O)N[C@@H](CC(C)C)C(=O)N[C@H](C(=O)N[C@@H](CCSC)C(=O)N[C@@H](CCCCN)C(=O)O)[C@@H](C)O)[C@@H](C)CC (H-STDIIFLTMK-OH)	> 1000 µM	–	8.78 µM	–
CC[C@H](C)[C@H](N)C(=O)N[C@H](C(=O)N[C@@H](CC(N)=O)C(=O)N[C@@H](CCCCN)C(=O)N[C@@H](CC(N)=O)C(=O)N[C@@H](CCCCN)C(=O)N[C@H](C(=O)N[C@H](C(=O)N[C@H](C(=O)N[C@@H](Cc1ccc(O)cc1)C(=O)O)[C@@H](C)CC)[C@@H](C)O)C(C)C)[C@@H](C)O (H-ITNKNKVTIY-OH)	> 1000 µM	–	8.72 µM	–
CC(C)[C@H](NC(=O)[C@H](CCC(=O)O)NC(=O)[C@H](Cc1ccccc1)NC(=O)[C@@H](NC(=O)[C@@H](N)CC(=O)O)[C@@H](C)O)C(=O)N[C@@H](Cc1ccc(O)cc1)C(=O)N[C@@H](CO)C(=O)N[C@@H](CCC(=O)O)C(=O)N[C@@H](Cc1ccc(O)cc1)C(=O)O (H-DTFEVYSEY-OH; N-terminus assumed)	> 1000 µM	–	> 1000 µM	–
CC(C)C[C@H](NC(=O)[C@H](CC(=O)O)NC(=O)[C@H](CC(=O)O)NC(=O)[C@H](CO)NC(=O)[C@@H](N)CC(=O)O)C(=O)N[C@@H](CCCCN)C(=O)N[C@@H](CCC(=O)O)C(=O)N[C@@H](CO)C(=O)N[C@@H](Cc1ccc(O)cc1)C(=O)O (H-DSDDLKESY-OH)	2.6 µM	–	–	–
